# Reference: patent US20200017495A1, “NOVEL HETEROCYCLIC COMPOUNDS AND THEIR USE IN PREVENTING OR TREATING BACTERIAL INFECTIONS” (priority 2017, published 2020)
# pIC50: −log10 of the molar value. Where “and” joins values, the source holds several entries; their conditions need not be identical. Identical values can stand only once. Like-named read-outs stand apart in the source and are kept apart here.
# Tests used:
# [1] = tested on: Providencia stuartii (PST) isolates; experiment: MIC of compounds alone and combined with antibacterials, broth microdilution (CLSI); type: cell-based
# Outline: (§1)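 Growth inhibition was read visually after 16-20 h at 35° C, giving compound MICs and antibacterial MICs at each fixed compound level. Bacteria in log phase were inoculated at 5.10^5 CFU/mL in ca-MHB onto DMSO-spotted compound or compound/antibacterial dilutions per CLSI microdilution.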
# [2] = tested on: Salmonella typhimurium (STY) isolates; experiment: as above; type: cell-based; details: STY S3371; for MIC: Salmonella enterica, TYPHIMURIUM, alone, read-out: MIC
# Outline: as §1
# [3] = tested on: Citrobacter murliniae (CMU) isolates; experiment: as above; type: cell-based
# Outline: as §1
# [4] = tested on: Proteus mirabilis (PMI) isolates; experiment: microbe, parasite or virus in culture; type: cell-based
# Outline: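 Log-phase isolates were inoculated at a final 5.10^5 CFU/mL in cation-adjusted Mueller-Hinton broth and incubated 16-20 h at 35° C in ambient air. MIC was the lowest concentration preventing visible growth; for combinations, the antibacterial MIC was read at each compound concentration.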
# SHV-1 = SHV-1 (Klebsiella pneumoniae, UniProt P0AD64); experiment: β-lactamase inhibitory activity, IC50 (nitrocefin hydrolysis); type: biochemical
# SHV-1, sequence (P0AD64 22-286): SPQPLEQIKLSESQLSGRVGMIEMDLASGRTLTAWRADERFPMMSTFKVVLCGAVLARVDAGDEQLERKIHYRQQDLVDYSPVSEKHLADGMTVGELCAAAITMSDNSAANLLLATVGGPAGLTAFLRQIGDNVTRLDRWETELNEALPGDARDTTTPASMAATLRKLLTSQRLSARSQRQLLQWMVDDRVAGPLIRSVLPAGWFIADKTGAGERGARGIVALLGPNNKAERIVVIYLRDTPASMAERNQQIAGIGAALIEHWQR
# Protocol: (§2) Enzymes were cloned in E. coli expression vector, expressed and purified in house using classical procedures. […] After 30 min of pre-incubation at room temperature, 15 μL of NCF (100 μM final) were finally added in each well. […] Enzyme activity was obtained by subtracting the background from the final signal, and was converted to enzyme inhibition using non inhibited wells. IC50 curves were fitted to a classical Langmuir equilibrium model with Hill slope using XLFIT (IDBS).
# KPC-2 = KPC-2 (Klebsiella pneumoniae, UniProt Q9F663); experiment: as above; type: biochemical
# KPC-2, sequence (Q9F663 25-293 limits assumed): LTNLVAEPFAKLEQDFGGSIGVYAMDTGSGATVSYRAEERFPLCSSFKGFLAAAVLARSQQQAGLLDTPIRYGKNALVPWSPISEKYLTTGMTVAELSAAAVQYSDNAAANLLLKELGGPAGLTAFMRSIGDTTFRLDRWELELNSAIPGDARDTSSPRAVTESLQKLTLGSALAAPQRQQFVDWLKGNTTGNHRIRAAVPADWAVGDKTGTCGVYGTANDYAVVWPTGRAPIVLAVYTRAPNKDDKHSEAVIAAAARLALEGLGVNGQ
# Protocol: (§3) Method 1: β-Lactamase Inhibitory Activity, Determination of IC50 (Table 1)
# as §2
# OXA-40 = OXA-40 (Acinetobacter baumannii, UniProt Q8RLA6); experiment: as above; type: biochemical
# OXA-40, sequence (Q8RLA6 entry or part of it): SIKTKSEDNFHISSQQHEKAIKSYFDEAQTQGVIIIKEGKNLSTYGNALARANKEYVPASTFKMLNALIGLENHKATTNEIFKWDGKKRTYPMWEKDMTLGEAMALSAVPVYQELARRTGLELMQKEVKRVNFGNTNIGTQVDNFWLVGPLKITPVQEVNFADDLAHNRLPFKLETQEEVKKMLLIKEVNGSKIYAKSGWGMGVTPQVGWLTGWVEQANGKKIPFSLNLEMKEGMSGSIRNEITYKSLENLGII
# Protocol: as §2
# OXA-1 = OXA-1 (Escherichia coli, UniProt P13661); experiment: as above; type: biochemical
# OXA-1, sequence (P13661 26-276): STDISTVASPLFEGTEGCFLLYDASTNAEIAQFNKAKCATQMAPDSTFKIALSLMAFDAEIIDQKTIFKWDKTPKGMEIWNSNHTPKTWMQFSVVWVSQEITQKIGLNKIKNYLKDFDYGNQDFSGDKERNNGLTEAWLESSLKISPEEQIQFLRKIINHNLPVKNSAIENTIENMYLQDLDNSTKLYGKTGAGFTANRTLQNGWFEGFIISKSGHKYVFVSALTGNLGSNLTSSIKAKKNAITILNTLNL
# Protocol: as §2
# SAU PC1 = SAU PC1 (Staphylococcus aureus, UniProt P00807); experiment: as above; type: biochemical, S. aureus
# SAU PC1, sequence (P00807 25-281): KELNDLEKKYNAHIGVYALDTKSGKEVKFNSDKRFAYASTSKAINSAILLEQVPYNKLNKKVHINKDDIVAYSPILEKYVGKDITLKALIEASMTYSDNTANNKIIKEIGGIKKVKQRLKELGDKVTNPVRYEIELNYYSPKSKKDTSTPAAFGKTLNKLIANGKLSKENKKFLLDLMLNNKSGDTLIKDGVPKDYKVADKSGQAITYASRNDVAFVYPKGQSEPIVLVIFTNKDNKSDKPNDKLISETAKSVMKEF
# Protocol: as §3, §2
# OXA-15 = OXA-15 (Pseudomonas aeruginosa, UniProt Q51574); experiment: as above; type: biochemical
# OXA-15, sequence (Q51574 22-275): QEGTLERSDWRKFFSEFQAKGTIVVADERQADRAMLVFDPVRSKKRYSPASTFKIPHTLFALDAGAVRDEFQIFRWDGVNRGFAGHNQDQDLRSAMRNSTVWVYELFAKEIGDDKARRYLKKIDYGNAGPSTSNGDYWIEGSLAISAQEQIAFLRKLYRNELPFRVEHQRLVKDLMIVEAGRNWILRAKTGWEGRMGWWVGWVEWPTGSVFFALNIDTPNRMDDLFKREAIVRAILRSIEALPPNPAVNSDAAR
# Protocol: as §2
# CTX-M-15 = CTX-M-15 (Escherichia coli, UniProt Q9EXV5); experiment: as above; type: biochemical
# CTX-M-15, sequence (Q9EXV5 entry or part of it): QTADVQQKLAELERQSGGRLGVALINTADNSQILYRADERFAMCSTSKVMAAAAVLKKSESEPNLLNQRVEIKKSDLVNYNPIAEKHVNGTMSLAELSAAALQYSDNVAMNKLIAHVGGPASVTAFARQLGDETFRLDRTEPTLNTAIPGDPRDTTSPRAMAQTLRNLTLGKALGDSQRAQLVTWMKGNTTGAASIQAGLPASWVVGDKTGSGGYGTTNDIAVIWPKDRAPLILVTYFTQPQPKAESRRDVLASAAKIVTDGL
# Protocol: as §3, §2
# TEM-1 = TEM-1 (Escherichia coli, UniProt P62593); experiment: as above; type: biochemical
# TEM-1, sequence (P62593 24-286 limits assumed): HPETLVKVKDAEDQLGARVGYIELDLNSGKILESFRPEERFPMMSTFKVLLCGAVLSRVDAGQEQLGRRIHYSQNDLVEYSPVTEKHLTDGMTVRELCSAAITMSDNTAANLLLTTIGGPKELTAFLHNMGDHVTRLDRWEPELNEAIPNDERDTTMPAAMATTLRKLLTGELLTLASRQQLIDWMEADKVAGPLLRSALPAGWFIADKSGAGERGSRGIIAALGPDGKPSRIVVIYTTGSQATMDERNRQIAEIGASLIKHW
# Protocol: as §2
# OXA-23 = OXA-23 (Acinetobacter baumannii, UniProt Q9L4P2); experiment: as above; type: biochemical
# OXA-23, sequence (Q9L4P2 18-273): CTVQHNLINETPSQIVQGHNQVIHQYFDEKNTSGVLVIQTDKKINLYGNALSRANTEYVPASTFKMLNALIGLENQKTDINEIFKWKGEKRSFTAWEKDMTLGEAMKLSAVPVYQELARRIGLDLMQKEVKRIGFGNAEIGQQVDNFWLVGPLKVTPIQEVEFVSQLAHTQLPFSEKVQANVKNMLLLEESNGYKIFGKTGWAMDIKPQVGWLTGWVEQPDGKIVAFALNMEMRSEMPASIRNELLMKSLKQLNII
# Protocol: as §2
# P99 ampC = P99 ampC (Enterobacter cloacae, UniProt P05364); experiment: as above; type: biochemical
# P99 ampC, sequence (P05364 21-381): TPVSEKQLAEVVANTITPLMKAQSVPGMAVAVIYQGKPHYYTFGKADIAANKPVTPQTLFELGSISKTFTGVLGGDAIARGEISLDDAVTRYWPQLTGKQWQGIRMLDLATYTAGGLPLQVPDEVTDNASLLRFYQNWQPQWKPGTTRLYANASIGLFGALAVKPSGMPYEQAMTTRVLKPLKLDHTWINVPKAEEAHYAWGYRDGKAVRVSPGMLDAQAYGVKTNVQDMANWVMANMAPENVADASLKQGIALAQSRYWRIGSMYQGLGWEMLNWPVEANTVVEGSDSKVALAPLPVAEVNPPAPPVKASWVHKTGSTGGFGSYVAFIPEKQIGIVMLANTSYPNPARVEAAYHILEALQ
# Protocol: as §3, §2
# SHV-12 = SHV-12 (Klebsiella pneumoniae, UniProt P0AD64, E235K/G234S/L31Q); experiment: as above; type: biochemical
# SHV-12, sequence (P0AD64 22-286 L31Q/G234S/E235K): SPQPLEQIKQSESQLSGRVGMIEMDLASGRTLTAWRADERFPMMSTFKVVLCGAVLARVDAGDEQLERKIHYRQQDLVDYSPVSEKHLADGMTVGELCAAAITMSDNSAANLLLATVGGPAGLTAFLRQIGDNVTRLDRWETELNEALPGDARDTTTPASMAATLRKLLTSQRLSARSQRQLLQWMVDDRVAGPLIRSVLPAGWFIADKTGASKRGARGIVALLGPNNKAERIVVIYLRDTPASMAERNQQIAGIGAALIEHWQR
# Protocol: as §3, §2
# OXA-58 = OXA-58 (Acinetobacter baumannii, UniProt Q2TR58); experiment: as above; type: biochemical
# OXA-58, sequence (Q2TR58 19-280): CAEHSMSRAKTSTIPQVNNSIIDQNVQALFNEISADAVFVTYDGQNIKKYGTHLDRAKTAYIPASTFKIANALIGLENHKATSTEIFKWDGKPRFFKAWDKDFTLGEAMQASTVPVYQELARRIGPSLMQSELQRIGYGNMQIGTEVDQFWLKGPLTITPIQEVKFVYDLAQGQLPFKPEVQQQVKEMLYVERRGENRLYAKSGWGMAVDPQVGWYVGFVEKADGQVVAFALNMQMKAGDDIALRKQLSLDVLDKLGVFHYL
# Protocol: as §2
# OXA-11 = OXA-11 (Pseudomonas aeruginosa, UniProt Q06778); experiment: as above; type: biochemical
# OXA-11, sequence (Q06778 21-266): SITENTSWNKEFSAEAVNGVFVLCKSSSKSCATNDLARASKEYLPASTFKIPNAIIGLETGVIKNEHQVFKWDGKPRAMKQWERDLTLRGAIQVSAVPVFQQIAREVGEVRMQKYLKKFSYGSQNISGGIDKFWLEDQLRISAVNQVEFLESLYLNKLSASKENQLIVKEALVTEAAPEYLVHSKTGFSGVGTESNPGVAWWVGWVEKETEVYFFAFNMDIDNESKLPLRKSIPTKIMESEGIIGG
# Protocol: as §2
# PAE ampC = PAE ampC (Pseudomonas aeruginosa, UniProt P24735); experiment: as above; type: biochemical, P. aeruginosa
# PAE ampC, sequence (P24735 27-397): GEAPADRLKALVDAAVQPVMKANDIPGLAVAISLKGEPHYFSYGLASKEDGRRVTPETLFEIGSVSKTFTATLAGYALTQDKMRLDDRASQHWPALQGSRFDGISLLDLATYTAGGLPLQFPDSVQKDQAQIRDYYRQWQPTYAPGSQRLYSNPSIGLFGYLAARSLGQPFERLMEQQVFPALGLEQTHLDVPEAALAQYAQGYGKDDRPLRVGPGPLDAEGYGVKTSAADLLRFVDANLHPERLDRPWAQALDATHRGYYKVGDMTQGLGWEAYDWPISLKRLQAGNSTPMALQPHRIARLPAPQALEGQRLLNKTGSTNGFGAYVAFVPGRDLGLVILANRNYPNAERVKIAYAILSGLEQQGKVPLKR
# Protocol: as §2
# OXA-48 = OXA-48 (Klebsiella pneumoniae, UniProt Q6XEC0); experiment: as above; type: biochemical
# OXA-48, sequence (Q6XEC0 23-265 limits assumed): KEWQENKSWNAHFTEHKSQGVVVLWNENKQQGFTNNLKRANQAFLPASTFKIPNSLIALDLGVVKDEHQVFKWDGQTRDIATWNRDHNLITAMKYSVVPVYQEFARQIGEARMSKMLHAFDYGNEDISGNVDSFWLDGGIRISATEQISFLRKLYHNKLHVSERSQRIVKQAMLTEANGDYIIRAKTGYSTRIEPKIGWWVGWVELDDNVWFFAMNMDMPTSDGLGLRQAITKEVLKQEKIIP
# Protocol: as §2
# [5] = Providencia stuartii, PST UFR94, alone, read-out: MIC
# [6] = Providencia stuartii, PST UFR95, alone, read-out: MIC
# [7] = Providencia stuartii, PST UFR120, alone, read-out: MIC
# [8] = Providencia stuartii, PST UFR121, alone, read-out: MIC
# [9] = Providencia stuartii, PST UFR122, alone, read-out: MIC
# [10] = Providencia stuartii, PST UFR123, alone, read-out: MIC
# [11] = Providencia stuartii, PST UFR124, alone, read-out: MIC
# [12] = Providencia stuartii, PST UFR125, alone, read-out: MIC
# [13] = Providencia stuartii, PST UFR235, alone, read-out: MIC
# [14] = Providencia stuartii, strain PST UFR98, compound alone, read-out: MIC
# [15] = Citrobacter murliniae, CMU 210102, alone, read-out: MIC
# [16] = Proteus mirabilis, PMI UFR128, alone, read-out: MIC
# [17] = Proteus mirabilis, PMI UFR129, alone, read-out: MIC
# [18] = Proteus mirabilis, PMI UFR130, alone, read-out: MIC
# [19] = Proteus mirabilis, strain PMI UFR132, compound alone, read-out: MIC
structure (smiles),measurement,setting,value
"CC1(C)S[C@@H]2[C@H](NC(=O)[C@H](N)c3ccc(O)cc3)C(=O)N2[C@H]1C(=O)O [AMX, Amoxicillin]",MIC ATB in combination,[1],128 µg/mL and >128 µg/mL
same,MIC ATB in combination,"[1]; PST UFR120, CLA @ 4 μg/mL",8 µg/mL
same,MIC ATB in combination,"[1]; PST UFR121, CLA @ 4 μg/mL",4 µg/mL
same,MIC ATB in combination,"[1]; PST UFR122, CLA @ 4 μg/mL",8 µg/mL
same,MIC ATB in combination,"[1]; PST UFR123, CLA @ 4 μg/mL",16 µg/mL
same,MIC ATB in combination,"[1]; PST UFR125, CLA @ 4 μg/mL",4 µg/mL
same,MIC,"[1]; strain PST UFR94, genotype CTX-M-14",>128 µg/mL
same,MIC,"[1]; strain PST UFR95, genotype TEM-24",>128 µg/mL
same,MIC,"[1]; strain PST UFR98, genotype TEM-1, CMY-6, OXA-1, NDM-1, RmtC",>128 µg/mL
same,MIC,"[1]; strain PST UFR235, genotype VEB-1",>128 µg/mL
same,MIC ATB in combination,[2]; AF2 @ 8 μg/mL,<0.25 µg/mL
same,MIC ATB in combination,[3],>128 µg/mL
same,MIC,"[3]; strain CMU 210102, genotype VIM-4",>256 µg/mL
same,MIC ATB in combination,"[4]; PMI UFR82, AF2 @ 8 μg/mL",<0.25 µg/mL
same,MIC ATB in combination,"[4]; PMI UFR126, CLA @ 4 μg/mL",16 µg/mL
same,MIC ATB in combination,"[4]; PMI UFR127, CLA @ 4 μg/mL",32 µg/mL
same,MIC ATB in combination,"[4]; PMI UFR129, CLA @ 4 μg/mL",2 µg/mL
same,MIC ATB in combination,"[4]; PMI UFR237, CLA @ 4 μg/mL",4 µg/mL
same,MIC,"[4]; strain PMI UFR82, genotype CMY-2",256 µg/mL
same,MIC,"[4]; strain PMI UFR120, genotype TEM-1, SHV-11, CTX-M-14",>128 µg/mL
same,MIC,"[4]; strain PMI UFR121, genotype TEM-1, TEM-52",>128 µg/mL
same,MIC,"[4]; strain PMI UFR122, genotype TEM-1, CTX-M-15",>128 µg/mL
same,MIC,"[4]; strain PMI UFR123, genotype CTX-M-1",>128 µg/mL
same,MIC,"[4]; strain PMI UFR124, genotype CTX-M-2",>128 µg/mL
same,MIC,"[4]; strain PMI UFR125, genotype CTX-M-71",>128 µg/mL
same,MIC,"[4]; strain PMI UFR126, genotype TEM-2, PER-1",>128 µg/mL
same,MIC,"[4]; strain PMI UFR127, genotype VEB-1",>128 µg/mL
same,MIC,"[4]; strain PMI UFR128, genotype VEB-1, OXA-10",>128 µg/mL
same,MIC,"[4]; strain PMI UFR129, genotype TEM-1, VEB-6",>128 µg/mL
same,MIC,"[4]; strain PMI UFR130, genotype CMY-2",>128 µg/mL
same,MIC,"[4]; strain PMI UFR131, genotype CMY-16, OXA-1, OXA-10, NDM-1, ArmA",>128 µg/mL
same,MIC,"[4]; strain PMI UFR132, genotype VEB-6, DHA-1, NDM-1, AphA6, AacA4",>128 µg/mL
same,MIC,"[4]; strain PMI UFR133, genotype OXA-23",>128 µg/mL
same,MIC,"[4]; strain PMI UFR237, genotype VEB-6",>128 µg/mL
O=C1N2CC(n3cccn3)=CC(C2)N1OC(F)(F)C(=O)[O-].[Li+] (stereo not drawn) [AF3],pIC50,SHV-1,8.22
same,pIC50,KPC-2,7.11
same,pIC50,OXA-40,5.05
same,pIC50,OXA-1,5.96
same,pIC50,SAU PC1,6.92
same,pIC50,OXA-15,6.92
same,pIC50,CTX-M-15,9.18
same,pIC50,TEM-1,9.09
same,pIC50,OXA-23,5.02
same,pIC50,P99 ampC,6.57
same,MIC,[1]; [5],16 µg/mL
same,MIC,[1]; [6],> 32 µg/mL
same,MIC,[1]; [7],8 µg/mL
same,MIC,[1]; [8],8 µg/mL
same,MIC,[1]; [9],4 µg/mL
same,MIC,[1]; [10],4 µg/mL
same,MIC,[1]; [11],8 µg/mL
same,MIC,[1]; [12],4 µg/mL
same,MIC,[1]; [13],16 µg/mL
same,MIC,[1]; [14],16 µg/mL
same,MIC,[2],8 µg/mL
same,MIC,[3]; [15],16 µg/mL
same,pIC50,SHV-12,8.37
same,MIC,"[4]; Proteus mirabilis, PMI UFR82, alone, read-out: MIC",4 µg/mL
same,MIC,"[4]; Proteus mirabilis, PMI UFR126, alone, read-out: MIC",4 µg/mL
same,MIC,"[4]; Proteus mirabilis, PMI UFR127, alone, read-out: MIC",8 µg/mL
same,MIC,[4]; [16],4 µg/mL
same,MIC,[4]; [17],4 µg/mL
same,MIC,[4]; [18],4 µg/mL
same,MIC,"[4]; Proteus mirabilis, PMI UFR133, alone, read-out: MIC",4 µg/mL
same,MIC,"[4]; Proteus mirabilis, PMI UFR237, alone, read-out: MIC",8 µg/mL
same,MIC,"[4]; Proteus mirabilis, strain PMI UFR131, compound alone, read-out: MIC",4 µg/mL
same,MIC,[4]; [19],8 µg/mL
same,pIC50,OXA-58,6.00
same,pIC50,OXA-11,7.40
same,pIC50,PAE ampC,7.01
same,pIC50,OXA-48,8.29
O=C1N2CC(c3ncco3)=CC(C2)N1OC(F)(F)C(=O)[O-].[Li+] (stereo not drawn) [AF2],pIC50,SHV-1,7.92
same,pIC50,KPC-2,7.16
same,pIC50,OXA-40,5.08
same,pIC50,OXA-1,5.68
same,pIC50,SAU PC1,6.66
same,pIC50,OXA-15,6.85
same,pIC50,CTX-M-15,8.82
same,pIC50,TEM-1,8.59
same,pIC50,OXA-23,5.13
same,pIC50,P99 ampC,6.14
same,MIC,[1]; [5],16 µg/mL
same,MIC,[1]; [6],32 µg/mL
same,MIC,[1]; [7],8 µg/mL
same,MIC,[1]; [8],4 µg/mL
same,MIC,[1]; [9],4 µg/mL
same,MIC,[1]; [10],8 µg/mL
same,MIC,[1]; [11],8 µg/mL
same,MIC,[1]; [12],8 µg/mL
same,MIC,[1]; [13],16 µg/mL
same,MIC,[1]; [14],32 µg/mL
same,MIC,[2],8 µg/mL
same,MIC,[3]; [15],16 µg/mL
same,pIC50,SHV-12,8.39
same,MIC,[4]; [16],8 µg/mL
same,MIC,[4]; [17],4 µg/mL
same,MIC,[4]; [18],4 µg/mL
same,MIC,[4]; [19],4 µg/mL
same,pIC50,OXA-58,6.24
same,pIC50,OXA-11,7.08
same,pIC50,PAE ampC,6.55
same,pIC50,OXA-48,8.62
